Data as given in ChEMBL document CHEMBL3632591, “Discovery and structural diversity of the hepatitis C virus NS3/4A serine protease inhibitor series leading to clinical candidate IDX320” (Bioorg Med Chem Lett, 2015).

Legend:
[1] = Apparent permeability across human Caco2 cells; format: ADME, cell-based; conditions: Caco-2
[2] = Clearance in Cynomolgus monkey at 2 mg/kg, iv administered as single dose; format: ADME, organism-based, Macaca fascicularis; conditions: in vivo
[3] = Half life in CD-1 mouse at 2 mg/kg, iv administered as single dose measured after 24 hrs; format: ADME, organism-based; conditions: in vivo
[4] = AUC (0 to 24 hrs) in CD-1 mouse at 2 mg/kg, iv administered as single dose measured after 24 hrs; format: ADME, organism-based; set-up: time < 24 hr, dose 2 mg/kg, route intravenous; conditions: in vivo
[5] = Half life in Cynomolgus monkey at 2 mg/kg, po administered as single dose; format: ADME, organism-based, Macaca fascicularis; conditions: in vivo
Mus musculus [6] = experiment: Toxicity in mouse assessed as effect on central nervous system at 250 mg/kg, po administered as single dose; format: organism-based; conditions: in vivo
[7] = Inhibition of recombinant full length HCV genotype 1b NS3/4A protease by FRET assay; set-up: species or system Hepatitis C virus subtype 1b
[8] = AUC (infinity) in Sprague-Dawley rat at 10 mg/kg, po administered as single dose; format: ADME, organism-based; set-up: dose 10 mg/kg, time infinity, route oral; conditions: in vivo
Mus musculus [9] = experiment: Toxicity in mouse assessed as effect on gastrointestinal motility at 250 mg/kg, po administered as single dose; format: organism-based; conditions: in vivo
[10] = Plasma concentration in CD-1 mouse at 2 mg/kg, po administered as single dose measured after 24 hrs; format: ADME, organism-based
[11] = Oral bioavailability in CD-1 mouse at 2 mg/kg administered as single dose; format: ADME, organism-based; conditions: in vivo
[12] = Plasma concentration in Cynomolgus monkey at 2 mg/kg, iv administered as single dose measured after 24 hrs; format: ADME, organism-based, Macaca fascicularis
[13] = Inhibition of HCV genotype 1a NS3/4A protease; set-up: species or system Hepatitis C virus subtype 1a
Rhesus monkey [14] = experiment: Toxicity in monkey assessed as effect on cardiovascular system at 250 mg/kg, po administered as single dose; format: organism-based, Macaca mulatta; conditions: in vivo
[15] = Cmax in CD-1 mouse at 2 mg/kg, po administered as single dose; format: ADME, organism-based; set-up: dose 2 mg/kg, route oral; conditions: in vivo
[16] = Clearance in CD-1 mouse at 2 mg/kg, iv administered as single dose measured after 24 hrs; format: ADME, organism-based; conditions: in vivo
[17] = Cytotoxicity against human hepatocytes; format: cell-based, Hepatocyte
[18] = Ratio of drug level in Sprague-Dawley rat liver to plasma at 10 mg/kg, po measured at 24 hrs; format: ADME, organism-based; conditions: liver and plasma
[19] = Half life in Sprague-Dawley rat at 10 mg/kg, po administered as single dose; format: ADME, organism-based; conditions: in vivo
[20] = biological target: T1, UDP-glucuronosyltransferase 1A1 (Homo sapiens, UniProt P22309); experiment: Inhibition of human UGT1A1; format: ADME
T1 sequence (P22309 whole entry): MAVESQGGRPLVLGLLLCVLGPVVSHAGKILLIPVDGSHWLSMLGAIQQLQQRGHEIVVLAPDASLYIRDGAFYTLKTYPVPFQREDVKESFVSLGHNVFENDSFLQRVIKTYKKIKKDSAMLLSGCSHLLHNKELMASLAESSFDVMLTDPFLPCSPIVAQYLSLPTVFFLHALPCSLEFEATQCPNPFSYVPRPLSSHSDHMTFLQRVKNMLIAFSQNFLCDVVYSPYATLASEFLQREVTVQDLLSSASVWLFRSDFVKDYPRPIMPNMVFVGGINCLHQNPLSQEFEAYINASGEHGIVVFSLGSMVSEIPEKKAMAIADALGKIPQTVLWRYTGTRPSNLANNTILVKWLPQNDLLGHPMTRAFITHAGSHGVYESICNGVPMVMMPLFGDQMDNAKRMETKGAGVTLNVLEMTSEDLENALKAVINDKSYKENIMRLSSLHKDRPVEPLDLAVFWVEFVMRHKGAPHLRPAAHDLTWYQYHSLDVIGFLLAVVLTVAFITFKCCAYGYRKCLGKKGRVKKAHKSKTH

[21] = Tmax in Cynomolgus monkey at 2 mg/kg, po administered as single dose; format: ADME, organism-based, Macaca fascicularis; conditions: in vivo
[22] = Plasma concentration in Cynomolgus monkey at 2 mg/kg, po administered as single dose measured after 24 hrs; format: ADME, organism-based, Macaca fascicularis
[23] = Cytotoxicity against mouse hepatocytes; format: cell-based, Hepatocyte
[24] = Cmax in Cynomolgus monkey at 2 mg/kg, po administered as single dose; format: ADME, organism-based, Macaca fascicularis; set-up: dose 2 mg/kg, route oral; conditions: in vivo
[25] = Plasma concentration in CD-1 mouse at 2 mg/kg, iv administered as single dose measured after 24 hrs; format: ADME, organism-based
[26] = Clearance in Sprague-Dawley rat at 2 mg/kg, iv administered as single dose; format: ADME, organism-based; conditions: in vivo
[27] = AUCt in Sprague-Dawley rat at 2 mg/kg, iv administered as single dose; format: ADME, organism-based; conditions: in vivo
[28] = Oral bioavailability in Cynomolgus monkey at 2 mg/kg administered as single dose; format: ADME, organism-based, Macaca fascicularis; conditions: in vivo
Rhesus monkey [29] = experiment: Toxicity in monkey assessed as effect on respiratory system at 250 mg/kg, po administered as single dose; format: organism-based, Macaca mulatta; conditions: in vivo
[30] = Half life in Cynomolgus monkey at 2 mg/kg, iv administered as single dose; format: ADME, organism-based, Macaca fascicularis; conditions: in vivo
Hepatitis C virus = experiment: Antiviral activity against HCV genotype 1b infected in human HuH7 cells after 3 days by luciferase assay; format: functional, organism-based, Hepacivirus hominis; conditions: Huh-7, 72 h
Cytochrome P450 2C9 = Cytochrome P450 2C9 (Homo sapiens, UniProt P11712); experiment: Inhibition of human CYP2C9; format: ADME
Chain of Cytochrome P450 2C9 (P11712 whole entry): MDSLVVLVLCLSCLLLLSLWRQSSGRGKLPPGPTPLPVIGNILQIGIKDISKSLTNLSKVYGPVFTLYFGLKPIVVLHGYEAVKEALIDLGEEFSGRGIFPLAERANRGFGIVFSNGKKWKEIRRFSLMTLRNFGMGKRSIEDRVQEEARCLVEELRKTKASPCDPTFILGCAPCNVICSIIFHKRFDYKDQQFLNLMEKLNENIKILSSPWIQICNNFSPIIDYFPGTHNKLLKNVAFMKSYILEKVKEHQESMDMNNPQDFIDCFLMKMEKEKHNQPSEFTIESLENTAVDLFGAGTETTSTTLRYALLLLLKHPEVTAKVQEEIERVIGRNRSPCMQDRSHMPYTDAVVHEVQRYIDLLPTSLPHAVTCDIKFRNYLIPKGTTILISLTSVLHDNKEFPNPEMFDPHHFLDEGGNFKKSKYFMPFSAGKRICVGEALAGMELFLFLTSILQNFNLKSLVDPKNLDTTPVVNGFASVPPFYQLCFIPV

[31] = Inhibition of cellular protease (unknown origin); conditions: Homo sapiens
Mus musculus [32] = experiment: Toxicity in mouse assessed as effect on renal function at 250 mg/kg, po administered as single dose; format: organism-based; conditions: in vivo
[33] = biological target: Voltage-gated inwardly rectifying potassium channel KCNH2 (Homo sapiens, UniProt Q12809); experiment: Inhibition of human ERG expressed in HEK293 cells; format: cell-based
Chain of Voltage-gated inwardly rectifying potassium channel KCNH2 (Q12809 whole entry): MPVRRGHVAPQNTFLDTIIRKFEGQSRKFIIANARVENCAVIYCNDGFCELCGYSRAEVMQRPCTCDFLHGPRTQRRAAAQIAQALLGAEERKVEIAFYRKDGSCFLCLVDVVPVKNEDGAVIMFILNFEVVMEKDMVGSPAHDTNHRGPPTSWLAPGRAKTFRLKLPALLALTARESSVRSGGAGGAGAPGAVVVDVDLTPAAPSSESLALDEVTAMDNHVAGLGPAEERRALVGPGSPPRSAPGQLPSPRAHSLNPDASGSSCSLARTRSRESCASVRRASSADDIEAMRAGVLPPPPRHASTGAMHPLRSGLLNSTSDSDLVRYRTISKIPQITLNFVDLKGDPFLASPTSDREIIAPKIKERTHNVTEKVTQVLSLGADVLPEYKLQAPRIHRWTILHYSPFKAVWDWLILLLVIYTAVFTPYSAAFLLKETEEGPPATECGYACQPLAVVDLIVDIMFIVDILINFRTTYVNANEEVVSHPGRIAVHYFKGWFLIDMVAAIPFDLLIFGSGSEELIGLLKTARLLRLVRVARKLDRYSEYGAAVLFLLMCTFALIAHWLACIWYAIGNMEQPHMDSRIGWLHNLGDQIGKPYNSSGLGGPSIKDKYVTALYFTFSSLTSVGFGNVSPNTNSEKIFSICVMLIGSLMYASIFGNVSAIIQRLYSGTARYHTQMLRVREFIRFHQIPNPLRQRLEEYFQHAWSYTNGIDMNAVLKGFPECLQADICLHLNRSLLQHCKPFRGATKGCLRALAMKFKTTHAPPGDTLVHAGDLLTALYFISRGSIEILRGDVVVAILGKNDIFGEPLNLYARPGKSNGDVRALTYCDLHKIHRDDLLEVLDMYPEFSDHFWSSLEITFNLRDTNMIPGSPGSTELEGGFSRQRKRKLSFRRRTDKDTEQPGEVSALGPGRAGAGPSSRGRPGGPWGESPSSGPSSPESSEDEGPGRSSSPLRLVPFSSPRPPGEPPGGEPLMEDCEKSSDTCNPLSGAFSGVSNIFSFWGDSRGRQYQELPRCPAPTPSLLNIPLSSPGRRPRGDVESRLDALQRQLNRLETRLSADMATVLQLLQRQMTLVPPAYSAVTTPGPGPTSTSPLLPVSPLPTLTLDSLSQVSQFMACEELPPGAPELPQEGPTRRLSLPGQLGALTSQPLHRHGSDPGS

[34] = Volume of distribution in CD-1 mouse at 2 mg/kg, iv administered as single dose measured after 24 hrs; format: ADME, organism-based; conditions: in vivo
[35] = AUCt in Sprague-Dawley rat at 10 mg/kg, po administered as single dose; format: ADME, organism-based; conditions: in vivo
[36] = AUC (infinity) in Cynomolgus monkey at 2 mg/kg, iv administered as single dose; format: ADME, organism-based, Macaca fascicularis; set-up: dose 2 mg/kg, route intravenous, time infinity; conditions: in vivo
[37] = Cytotoxicity against rat hepatocytes; format: cell-based, Hepatocyte
[38] = Volume of distribution in Cynomolgus monkey at 2 mg/kg, iv administered as single dose; format: ADME, organism-based, Macaca fascicularis; conditions: in vivo
[39] = Cmax in Sprague-Dawley rat plasma at 2 mg/kg, iv administered as single dose measured after 8 hrs; format: ADME, organism-based; set-up: dose 2 mg/kg, route intravenous
[40] = Inhibition of HCV genotype 3a NS3/4A protease; set-up: species or system Hepatitis C virus subtype 3a

Papp [1]: 1.8 ×10⁻⁶ cm/s
clearance [2]: 3.83 mL/min/kg
half-life [3]: 6.3 h
AUC(0-t) at 24 h [4]: 4060 ng·h/mL
half-life [5]: 7.6 h
IC50 [7]: 0.5 nM
AUC(0-inf) [8]: 3970 ng·h/mL
concentration at 24 h [10]: 1.5 ng/mL
bioavailability [11]: 34.7%
concentration at 24 h [12]: 66 ng/mL
IC50 [13]: 0.8 nM
Cmax [15]: 174 ng/mL
clearance [16]: 8 mL/min/kg
Kp at 24 h [18]: 61.7
half-life [19]: 3.6 h
IC50 [20]: ≥ 10000 nM
Tmax [21]: 1 h
concentration at 24 h [22]: 81 ng/mL
Cmax [24]: 1030 ng/mL
concentration at 24 h [25]: 7.9 ng/mL
clearance [26]: 18.8 mL/min/kg
AUC(0-t) [27]: 1750 ng·h/mL
bioavailability [28]: 107%
half-life [30]: 10.3 h
EC50 (Hepatitis C virus): 0.7 nM
IC50 (Cytochrome P450 2C9): ≥ 10000 nM
IC50 [31]: > 10000 nM
Vd [34]: 4.4 L/kg
AUC(0-t) [35]: 3920 ng·h/mL
AUC(0-inf) [36]: 9580 ng·h/mL
Vd [38]: 3.5 L/kg
Cmax [39]: 2060 ng/mL
IC50 [40]: 23 nM
Compound: COc1ccc2c(O[C@H]3CCN4C(=O)N(C)CCCCC=C[C@@H]5C[C@@]5(C(=O)NS(=O)(=O)C5(C)CC5)NC(=O)[C@@H]4C3)cc(-c3nc(C(F)(F)F)cs3)nc2c1C
Activity (Mus musculus [6]): Non-toxic
Activity (Mus musculus [9]): Non-toxic
Activity (Rhesus monkey [14]): Non-toxic
CC50 [17]: > 10000 nM
CC50 [23]: > 10000 nM
Activity (Rhesus monkey [29]): Non-toxic
Activity (Mus musculus [32]): Non-toxic
inhibition (INH) [33]: Not Active
CC50 [37]: > 10000 nM
